Like-named read-outs stand apart in the source and are kept apart here.

This assay relates to SARS-CoV-2-NLuc in A549-hACE2 cells. Kind of assay: microbe, parasite or virus in culture. Type of assay: cell-based, SARS Coronavirus 2.
The mark [1] stands for this setting: Severe acute respiratory syndrome coronavirus, 48 h, read-out: MPro EC50 (nM).
The mark [2] stands for this setting: Severe acute respiratory syndrome coronavirus, 48 h, read-out: MPro EC50.

What is called EC50 is the midpoint of the concentration-response curve. As for `COc1cc(-c2cc3c(o2)c(=O)n(-c2cncc4ccccc24)c(=O)n3CCC#N)c(Cl)cc1F` (single isomer, unassigned) [Example 59, 3-[6-(2-chloro-4-fluoro-5-methoxy-phenyl)-3-(4-isoquinolyl)-2,4-dioxo-furo[3,2-d]pyrimidin-1-yl]propanenitrile], the EC50 (read-out: MPro EC50) worked out at 4.65 nM. `COc1cc(-c2cc3c(o2)c(=O)n(-c2cncc4ccccc24)c(=O)n3CCC#N)c(Cl)cc1F` (single isomer, unassigned) [Example 60, 3-[6-(2-chloro-4-fluoro-5-methoxy-phenyl)-3-(4-isoquinolyl)-2,4-dioxo-furo[3,2-d]pyrimidin-1-yl]propanenitrile]: the concentration for a half-maximal effect (EC50) (read-out: MPro EC50) was determined as 82.8 nM. In the case of `Cn1ncc2cncc(-n3c(=O)c4oc(-c5ccccc5Cl)cc4n(CCC#N)c3=O)c21` (single isomer, unassigned) [Example 61, 3-[6-(2-chlorophenyl)-3-(1-methylpyrazolo[4,3-c]pyridin-7-yl)-2,4-dioxo-furo[3,2-d]pyrimidin-1-yl]propanenitrile], under “read-out: MPro EC50”, the EC50 stood at 7.16 nM. Still for that read-out and setting: as for `Cn1ncc2cncc(-n3c(=O)c4oc(-c5ccccc5Cl)cc4n(CCC#N)c3=O)c21` (single isomer, unassigned) [Example 62, 3-[6-(2-chlorophenyl)-3-(1-methylpyrazolo[4,3-c]pyridin-7-yl)-2,4-dioxo-furo[3,2-d]pyrimidin-1-yl]propanenitrile], the figure is 233 nM; as for `COc1cc(-c2cc3c(o2)c(=O)n(-c2cncc4cnn(C)c24)c(=O)n3CCC#N)c(Cl)cc1F` (single isomer, unassigned) [Example 63, 3-[6-(2-chloro-4-fluoro-5-methoxy-phenyl)-3-(1-methylpyrazolo[4,3-c]pyridin-7-yl)-2,4-dioxo-furo[3,2-d]pyrimidin-1-yl]propanenitrile], 6.24 nM. Still for that read-out and setting: as for `COc1cc(-c2cc3c(o2)c(=O)n(-c2cncc4cnn(C)c24)c(=O)n3CCC#N)c(Cl)cc1F` (single isomer, unassigned) [Example 64, 3-[6-(2-chloro-4-fluoro-5-methoxy-phenyl)-3-(1-methylpyrazolo[4,3-c]pyridin-7-yl)-2,4-dioxo-furo[3,2-d]pyrimidin-1-yl]propanenitrile], the figure is 112 nM; as for `COc1cc(-c2cc3c(o2)c(=O)n(-c2cncc4cccnc24)c(=O)n3CCC#N)c(Cl)cc1F` (single isomer, unassigned) [Example 65, 3-(6-(2-chloro-4-fluoro-5-methoxyphenyl)-3-(1,6-naphthyridin-8-yl)-2,4-dioxo-3,4-dihydrofuro[3,2-d]pyrimidin-1(2H)-yl)propanenitrile], 5.78 nM.

Consider `COc1cc(-c2cc3c(o2)c(=O)n(-c2cncc4cccnc24)c(=O)n3CCC#N)c(Cl)cc1F` (single isomer, unassigned) [Example 66, 3-(6-(2-chloro-4-fluoro-5-methoxyphenyl)-3-(1,6-naphthyridin-8-yl)-2,4-dioxo-3,4-dihydrofuro[3,2-d]pyrimidin-1(2H)-yl)propanenitrile], for which the EC50 (read-out: MPro EC50) turned out to be 112 nM.

Take `COc1ccc(Cl)c(-c2cc3[nH]c(=O)n(-c4cncc5ccccc45)c(=O)c3o2)c1` [Example 3]: under setting [1], the EC50 amounted to 23.3 nM. As to `O=c1[nH]c2cc(-c3ccccc3Cl)oc2c(=O)n1-c1cncc2ccccc12` [Example 4, 6-(2-chlorophenyl)-3-(4-isoquinolyl)-1H-furo[3,2-d]pyrimidine-2,4-dione], under setting [2], the EC50 amounted to 273 nM. Regarding `O=c1[nH]c2cc(-c3ccccc3Cl)oc2c(=O)n1-c1cncc2c1CCCC2` [Example 5], the EC50 under setting [1] was 212 nM. In the case of `Cn1ncc2cncc(-n3c(=O)[nH]c4cc(-c5ccccc5Cl)oc4c3=O)c21` [Example 6], under setting [1], the EC50 was found to be 174 nM. The same measure, in the same setting: for `O=c1[nH]c2cc(-c3ccccc3Cl)oc2c(=O)n1-c1cncc2ccc(F)cc12` [Example 7] the value was 79.6 nM; for `Cc1cncc(-n2c(=O)[nH]c3cc(-c4ccccc4Cl)oc3c2=O)c1` [Example 8], 137 nM. Turning to `Cn1ncc2cncc(-n3c(=O)[nH]c4cc(-c5ccc(F)cc5Cl)oc4c3=O)c21` [Example 9], the 50% effective concentration (EC50) under setting [2] was determined as 1010 nM. For the compound `COc1ccc2cncc(-n3c(=O)[nH]c4cc(-c5ccccc5Cl)oc4c3=O)c2c1` [Example 10], the EC50 under setting [1] was 95.6 nM.

Consider `COc1cc(-c2cc3[nH]c(=O)n(-c4cncc5ccccc45)c(=O)c3o2)c(Cl)cc1F` [Example 11, 6-(2-chloro-4-fluoro-5-methoxy-phenyl)-3-(4-isoquinolyl)-1H-furo[3,2-d]pyrimidine-2,4-dione], for which the EC50 under setting [2] came to 81.5 nM.

As to `COc1cc(-c2cc3[nH]c(=O)n(-c4cnnc(C)c4)c(=O)c3o2)c(Cl)cc1F` [Example 12], the EC50 under setting [1] was greater than 10000 nM.

As to `O=c1[nH]c2oc(-c3ccccc3)nc2c(=O)n1-c1cncc2ccccc12` [Example 13], the EC50 under setting [1] was determined as 4240 nM. On the same count and under the same terms, as for `O=c1[nH]c2oc(-c3ccccc3Cl)cc2c(=O)n1-c1cncc2ccccc12` [Example 14], the figure is 3330 nM; as for `COc1cc(-c2cc3[nH]c(=O)n(-c4cccnn4)c(=O)c3o2)c(Cl)cc1F` [Example 15], greater than 10000 nM. In the case of `COc1cc(-c2cc3c(o2)c(=O)n(-c2cncc4ccccc24)c(=O)n3CCC#N)c(Cl)cc1F` [Example 16, 3-(6-(2-chloro-4-fluoro-5-methoxyphenyl)-3-(isoquinolin-4-yl)-2,4-dioxo-3,4-dihydrofuro[3,2-d]pyrimidin-1(2H1)-yl)propanenitrile], the EC50 under setting [2] came out at 4.36 nM. Take `COc1cc(-c2cc3c(o2)c(=O)n(-c2cncc4cnn(C)c24)c(=O)n3CCC#N)c(Cl)cc1F` [Example 17]: the EC50 under setting [1] amounted to 20.7 nM.

Consider `Cn1ncc2cncc(-n3c(=O)c4oc(-c5ccccc5Cl)cc4n(CCC#N)c3=O)c21` [Example 18], for which the EC50 under setting [1] was found to be 27.8 nM.

As to `N#CCCn1c(=O)n(-c2cncc3ccccc23)c(=O)c2oc(-c3ccccc3Cl)cc21` [Example 19], under setting [1], the concentration for a half-maximal effect (EC50) stood at 13 nM. Same read-out and setting: as for `COc1ccc2cncc(-n3c(=O)c4oc(-c5ccccc5Cl)cc4n(CCC#N)c3=O)c2c1` [Example 20], the figure is 17.1 nM. The same measure, in the same setting: for `N#CCCn1c(=O)n(-c2cncc3c2CCCC3)c(=O)c2oc(-c3ccccc3Cl)cc21` [Example 21] the value was 29.6 nM. The same measure, in the same setting: as for `N#CCCn1c(=O)n(-c2cncc3ccc(F)cc23)c(=O)c2oc(-c3ccccc3Cl)cc21` [Example 22], the figure is 19 nM. Consider `Cc1cncc(-n2c(=O)c3oc(-c4ccccc4Cl)cc3n(CCC#N)c2=O)c1` [Example 23], for which the half-maximal effective concentration (EC50) under setting [1] stood at 24.1 nM. Turning to `Cn1ncc2cncc(-n3c(=O)c4oc(-c5ccc(F)cc5Cl)cc4n(CCC#N)c3=O)c21` [Example 24], under setting [1], the half-maximal effective concentration (EC50) worked out at 71.4 nM. The same measure, in the same setting: for `N#CCCn1c(=O)n(-c2cncc3ccccc23)c(=O)c2oc(-c3ccc(F)cc3Cl)cc21` [Example 25] the value was 41.7 nM; for `COc1cc(-c2cc3c(o2)c(=O)n(-c2cccnn2)c(=O)n3CCC#N)c(Cl)cc1F` [Example 26], 408 nM; for `COc1cc(-c2cc3c(o2)c(=O)n(-c2cnnc(C)c2)c(=O)n3CCC#N)c(Cl)cc1F` [Example 27], 5250 nM. With `COc1cc(-c2cc3c(o2)c(=O)n(-c2cncc4ccccc24)c(=O)n3C)c(Cl)cc1F` [Example 28, 6-(2-chloro-4-fluoro-5-methoxy-phenyl)-3-(4-isoquinolyl)-1-methyl-furo[3,2-d]pyrimidine-2,4-dione], the half-maximal effective concentration (EC50) under setting [2] worked out at 288 nM. Turning to `Cn1ncc2cncc(-n3c(=O)c4oc(-c5ccccc5Cl)cc4n(C)c3=O)c21` [Example 29], under setting [1], the EC50 amounted to 1170 nM.

Source of the values: patent US20250296936A1, “SARS-COV2 MAIN PROTEASE INHIBITORS” (Gilead Sciences, Inc., priority 2024, published 2025).
